Laboratory results reported in the NIST ThermoML archive (doi:10.1016/j.jct.2013.09.035).
Numbers after ± are expanded uncertainties.

Conditions: Liquid, Vibrating tube method

CCOC(F)(C(F)(F)C(F)(F)C(F)(F)F)C(F)(C(F)(F)F)C(F)(F)F (centres undefined) [2-trifluoromethyl-3-ethoxydodecafluorohexane]
Conditions | mass density [kg/m3]
283.48 K, 60000 kPa | 1751.01 ± 2.2
283.49 K, 3000 kPa | 1658.1 ± 0.57
283.49 K, 50000 kPa | 1737.96 ± 1.9
283.49 K, 70000 kPa | 1762.23 ± 2.5
283.5 K, 5000 kPa | 1662.38 ± 0.61
283.5 K, 10000 kPa | 1672.98 ± 0.72
283.5 K, 30000 kPa | 1709.09 ± 1.3
283.5 K, 40000 kPa | 1724.44 ± 1.6
283.5 K, 80000 kPa | 1773.1 ± 2.9
283.5 K, 90000 kPa | 1783.39 ± 3.2
283.51 K, 100 kPa | 1652.11 ± 0.52
283.51 K, 1000 kPa | 1653.72 ± 0.54
283.51 K, 15000 kPa | 1682.71 ± 0.84
283.51 K, 20000 kPa | 1691.9 ± 0.98
283.51 K, 25000 kPa | 1701.13 ± 1.1
283.52 K, 100000 kPa | 1793.19 ± 3.6
293.04 K, 40000 kPa | 1708.75 ± 1.6
293.04 K, 50000 kPa | 1723.04 ± 1.9
293.04 K, 70000 kPa | 1748.33 ± 2.5
293.04 K, 90000 kPa | 1770.03 ± 3.2
293.04 K, 100000 kPa | 1780.11 ± 3.5
293.05 K, 100 kPa | 1631.62 ± 0.52
293.05 K, 1000 kPa | 1633.93 ± 0.54
293.05 K, 3000 kPa | 1638.93 ± 0.57
293.05 K, 5000 kPa | 1643.69 ± 0.61
293.05 K, 10000 kPa | 1654.94 ± 0.7
293.05 K, 15000 kPa | 1665.37 ± 0.82
293.05 K, 20000 kPa | 1675.05 ± 0.96
293.05 K, 25000 kPa | 1684.16 ± 1.1
293.05 K, 30000 kPa | 1692.79 ± 1.2
293.05 K, 60000 kPa | 1736.39 ± 2.2
293.05 K, 80000 kPa | 1759.65 ± 2.8
302.88 K, 100 kPa | 1610.41 ± 0.52
302.88 K, 1000 kPa | 1612.92 ± 0.54
302.88 K, 3000 kPa | 1618.33 ± 0.57
302.88 K, 10000 kPa | 1635.7 ± 0.7
302.88 K, 60000 kPa | 1721.46 ± 2.1
302.89 K, 5000 kPa | 1623.52 ± 0.6
302.89 K, 15000 kPa | 1646.85 ± 0.8
302.89 K, 20000 kPa | 1657.18 ± 0.94
302.89 K, 25000 kPa | 1666.89 ± 1.1
302.89 K, 30000 kPa | 1676.01 ± 1.2
302.89 K, 40000 kPa | 1692.64 ± 1.5
302.89 K, 50000 kPa | 1707.74 ± 1.8
302.89 K, 70000 kPa | 1733.98 ± 2.5
302.89 K, 80000 kPa | 1745.75 ± 2.8
302.89 K, 90000 kPa | 1756.68 ± 3.1
302.89 K, 100000 kPa | 1767.03 ± 3.5
313.15 K, 90000 kPa | 1744.34 ± 3.1
313.16 K, 3000 kPa | 1598.14 ± 0.57
313.16 K, 15000 kPa | 1628.94 ± 0.79
313.16 K, 20000 kPa | 1639.8 ± 0.92
313.16 K, 30000 kPa | 1659.7 ± 1.2
313.16 K, 40000 kPa | 1677.38 ± 1.5
313.16 K, 60000 kPa | 1707.63 ± 2.1
313.17 K, 100 kPa | 1589.56 ± 0.53
313.17 K, 1000 kPa | 1592.21 ± 0.54
313.17 K, 10000 kPa | 1616.81 ± 0.68
313.17 K, 25000 kPa | 1650.1 ± 1.1
313.17 K, 50000 kPa | 1693.17 ± 1.8
313.17 K, 70010 kPa | 1720.7 ± 2.4
313.17 K, 80000 kPa | 1733 ± 2.7
313.17 K, 100000 kPa | 1755.06 ± 3.4
313.18 K, 5000 kPa | 1603.66 ± 0.6
323.04 K, 5000 kPa | 1585.04 ± 0.6
323.04 K, 10000 kPa | 1599.21 ± 0.68
323.04 K, 15000 kPa | 1612.03 ± 0.77
323.04 K, 20000 kPa | 1623.79 ± 0.9
323.04 K, 25000 kPa | 1634.67 ± 1
323.04 K, 30000 kPa | 1644.88 ± 1.2
323.04 K, 40000 kPa | 1663.35 ± 1.5
323.04 K, 50000 kPa | 1679.91 ± 1.8
323.04 K, 60000 kPa | 1694.93 ± 2.1
323.04 K, 70000 kPa | 1708.52 ± 2.4
323.04 K, 80000 kPa | 1721.13 ± 2.7
323.04 K, 90000 kPa | 1732.9 ± 3
323.04 K, 100000 kPa | 1743.96 ± 3.4
323.05 K, 1000 kPa | 1572.54 ± 0.54
323.05 K, 3000 kPa | 1578.97 ± 0.57
323.06 K, 100 kPa | 1569.59 ± 0.57
332.94 K, 15000 kPa | 1591.88 ± 0.76
332.94 K, 20000 kPa | 1604.4 ± 0.87
332.94 K, 25000 kPa | 1615.92 ± 1
332.94 K, 30000 kPa | 1626.63 ± 1.1
332.94 K, 40000 kPa | 1646.05 ± 1.4
332.94 K, 50000 kPa | 1663.31 ± 1.7
332.94 K, 60000 kPa | 1678.97 ± 2
332.94 K, 70000 kPa | 1693.19 ± 2.3
332.94 K, 80000 kPa | 1706.27 ± 2.6
332.94 K, 90000 kPa | 1718.48 ± 3
332.94 K, 100000 kPa | 1729.78 ± 3.3
332.95 K, 3000 kPa | 1556.26 ± 0.57
332.95 K, 5000 kPa | 1562.89 ± 0.59
332.95 K, 10000 kPa | 1578.13 ± 0.67
332.96 K, 1000 kPa | 1549.29 ± 0.55
332.97 K, 100 kPa | 1546.01 ± 0.53
342.55 K, 100 kPa | 1525.56 ± 0.56
342.56 K, 1000 kPa | 1529.11 ± 0.56
342.56 K, 3000 kPa | 1536.69 ± 0.58
342.56 K, 5000 kPa | 1543.86 ± 0.59
342.56 K, 10000 kPa | 1560.31 ± 0.66
342.57 K, 15000 kPa | 1574.95 ± 0.75
342.57 K, 20000 kPa | 1588.2 ± 0.85
342.57 K, 25000 kPa | 1600.4 ± 0.98
342.57 K, 30000 kPa | 1611.69 ± 1.1
342.57 K, 40000 kPa | 1632.02 ± 1.4
342.57 K, 50000 kPa | 1650.06 ± 1.7
342.57 K, 60000 kPa | 1666.29 ± 2
342.57 K, 70000 kPa | 1680.92 ± 2.3
342.57 K, 80000 kPa | 1694.39 ± 2.6
342.57 K, 90000 kPa | 1706.96 ± 2.9
342.57 K, 100000 kPa | 1718.69 ± 3.2
352.56 K, 100 kPa | 1503.72 ± 0.59
352.56 K, 1000 kPa | 1507.64 ± 0.58
352.57 K, 3000 kPa | 1515.99 ± 0.59
352.57 K, 5000 kPa | 1523.8 ± 0.59
352.57 K, 10000 kPa | 1541.62 ± 0.66
352.57 K, 15000 kPa | 1557.31 ± 0.74
352.57 K, 20000 kPa | 1571.45 ± 0.83
352.57 K, 25000 kPa | 1584.35 ± 0.96
352.57 K, 30000 kPa | 1596.28 ± 1.1
352.57 K, 40000 kPa | 1617.61 ± 1.4
352.57 K, 50000 kPa | 1636.45 ± 1.6
352.57 K, 70000 kPa | 1668.54 ± 2.3
352.58 K, 60000 kPa | 1653.3 ± 1.9
352.58 K, 80000 kPa | 1682.53 ± 2.6
352.58 K, 90000 kPa | 1695.44 ± 2.9
352.58 K, 100000 kPa | 1707.52 ± 3.2
362.59 K, 5000 kPa | 1503.25 ± 0.61
362.59 K, 10000 kPa | 1522.52 ± 0.66
362.59 K, 15000 kPa | 1539.4 ± 0.73
362.6 K, 100 kPa | 1481.19 ± 0.59
362.6 K, 1000 kPa | 1485.52 ± 0.6
362.6 K, 3000 kPa | 1494.68 ± 0.6
362.6 K, 20000 kPa | 1554.46 ± 0.82
362.6 K, 25000 kPa | 1568.1 ± 0.94
362.6 K, 30000 kPa | 1580.67 ± 1.1
362.6 K, 40000 kPa | 1603.06 ± 1.3
362.6 K, 50000 kPa | 1622.7 ± 1.6
362.6 K, 60000 kPa | 1640.27 ± 1.9
362.6 K, 70000 kPa | 1656.03 ± 2.2
362.6 K, 80000 kPa | 1670.49 ± 2.5
362.6 K, 90000 kPa | 1683.83 ± 2.8
362.6 K, 100000 kPa | 1696.22 ± 3.1
